Assays:
[1] = Hypoxia response of the referenced genes/sequences, summary in cross-reference Table 26; format: cell-based, human; details: direction of expression change of the gene/sequence in response to hypoxia
[2] = test system: primary human cell cultures (11 cell types); assay: Custom gene array, 11 human cell types in normoxia or hypoxia for 6 hr and 18 hr; format: cell-based
Method: Equivalent cultures of non-immortalized, non-transformed primary human cells of 10 distinct types, were cultured in either normoxia or were exposed to hypoxia for 6 hr and 18 hr, and gene expression changes were determined. […] Moreover, unlike the vast majority of information in the public domain relating to genes responsive to hypoxia, all of these cells were human and were cultured without any modifications following isolation from the human donors.
A non-primary cell type (#9) was used to represent neurons, since primary human neurons are difficult to source. Therefore a total of 11 cell types are compared. It should be noted that RNA from hepatocytes at the […] timepoint of hypoxia was not available for this work.
Each RNA sample was hybridised to duplicate or triplicate arrays, to ensure reproducible data, and was analysed using GeneSpring software. Data from replicate arrays were merged during analysis to generate mean values. Data normalisation was achieved per-array using the aforementioned list of control genes, such that differences in RNA labelling or hybridization due to experimental variation were corrected by referencing each gene to the mean value of the reference genes on the same array. Also, for each gene, expression values were obtained which represent the value in each experimental condition (e.g. macrophages 6 hr hypoxia) as compared to the median of value of that gene throughout the full range of experimental conditions (i.e. from all cell types). […] This is common in microarray data analysis.

**Q.** With Interleukin 8 as the substance, how does the Hypoxia response [1] read?
**A.** The Hypoxia response was “Increase”.

**Q.** Which Hypoxia response [1] does the source give for Vascular endothelial growth factor here?
**A.** Its Hypoxia response is “Increase”.

**Q.** With Endothelin 1 as the substance, how does the Hypoxia response [1] read?
**A.** The Hypoxia response was “Repression”.

**Q.** For p1G10, which mRNA expression level ([2]; cell type #1, HY (hypoxia) 6 hr) is on record?
**A.** The mRNA expression level was 0.61.

**Q.** And the mRNA expression level ([2]; cell type #1, HY (hypoxia) 18 hr)?
**A.** The mRNA expression level was 1.52.

**Q.** And the mRNA expression level ([2]; cell type #1, NO (normoxia))?
**A.** Its mRNA expression level is 1.01.

**Q.** And the mRNA expression level ([2]; cell type #2, HY (hypoxia) 6 hr)?
**A.** The mRNA expression level was 1.76.

**Q.** And the mRNA expression level ([2]; cell type #2, HY (hypoxia) 18 hr)?
**A.** The mRNA expression level was 1.65.

**Q.** And the mRNA expression level ([2]; cell type #2, NO (normoxia))?
**A.** Its mRNA expression level is 1.69.

**Q.** And the mRNA expression level ([2]; cell type #3, HY (hypoxia) 6 hr)?
**A.** The mRNA expression level was 3.58.

**Q.** What about the mRNA expression level ([2]; cell type #3, HY (hypoxia) 18 hr) of the same substance?
**A.** Its mRNA expression level is 2.49.

**Q.** What about the mRNA expression level ([2]; cell type #3, NO (normoxia)) of the same substance?
**A.** The mRNA expression level was 2.01.

**Q.** What about the mRNA expression level ([2]; cell type #4, HY (hypoxia) 6 hr) of the same substance?
**A.** The mRNA expression level was 1.13.

**Q.** What about the mRNA expression level ([2]; cell type #4, HY (hypoxia) 18 hr) of the same substance?
**A.** The mRNA expression level was 0.99.

**Q.** And the mRNA expression level ([2]; cell type #4, NO (normoxia))?
**A.** The mRNA expression level was 1.32.

**Q.** And the mRNA expression level ([2]; cell type #5, HY (hypoxia) 6 hr)?
**A.** Its mRNA expression level is 0.65.

**Q.** And the mRNA expression level ([2]; cell type #5, NO (normoxia))?
**A.** Its mRNA expression level is 0.44.

**Q.** What about the mRNA expression level ([2]; cell type #6, HY (hypoxia) 6 hr) of the same substance?
**A.** Its mRNA expression level is 0.62.

**Q.** And the mRNA expression level ([2]; cell type #6, NO (normoxia))?
**A.** Its mRNA expression level is 0.44.

**Q.** With Monocyte chemotactic protein 1 as the substance, how does the Hypoxia response [1] read?
**A.** The Hypoxia response was “Repression”.
